Columns and labels:
[1] = test system: bone marrow derived macrophages (BMM); assay: IFN-β bio-assay: samples delivered to BMM cytosol by digitonin, type I IFN read with ISRE-L929 luciferase reporter cells; assay type: cell-based, mouse; conditions: FIG. 3d
Procedure: Mouse bone marrow from 6-8 week old female mice was differentiated to bone marrow derived macrophages (BMM) as described previously (S3). Interferon responsive ISRE-L929 cells were cultured in ISRE media (DMEM, 2 mM glutamine, 1 mM pyruvate, 10% heat inactivated FBS, and penicillin-streptomycin). Induction of type-I interferon was assessed using BMMs plated in 96-well flat bottom tissue culture treated plates (10^5 cells/well) a minimum of 12 hours prior to use in BMM media (DMEM, 2 mM glutamine, 1 mM pyruvate, 10% CSF from 3T3 cells, and 20% heat inactivated FBS). Samples (10 μL) of L. monocytogenes supernatants, HPLC fractions, and cyclic di-AMP standard (Biolog Life Sciences Institute, […]) were mixed with a 10× volume of digitonin permeabilization solution (50 mM HEPES pH 7.0, 100 mM KCl, 3 mM MgCl2, 0.1 mM DTT, 85 mM Sucrose, 0.2% BSA, 1 mM ATP, 0.1 mM GTP, ±10 μg/mL Digitonin) (S4). Media was aspirated from the cells and replaced with 50 μL each sample mixture. Cells were incubated for 30 minutes at 37° C. […] Finally, 40 μL of luciferase substrate solution (20 mM Tricine, 2.67 mM MgSO4.7H2O, 0.1 mM EDTA, 33.3 mM DTT, 530 μM ATP, 270 μM acetyl CoA lithium salt, 470 μM luciferin, 5 mM NaOH, 265 μM magnesium carbonate hydroxide) was added to each well and luminescence was measured using a VICTOR3 luminometer (PerkinElmer). • 8. […]

WT and mutant BMMs = assay: IFN-β induction in various host strains (WT and knockout BMMs), ISRE L929 bioassay; assay type: cell-based, mouse; conditions: 3 μM with digitonin, 6 hours; WT vs myd88-trif−/−, irf3−/−, mays−/− macrophages; parallel to L. monocytogenes (IRF3 and STING dependent, MyD88/Trif and MAVS independent); FIG. 9
Procedure: BMMs were differentiated as described previously (S3). For mays−/−macrophages, heterozygous mice were used as a control. WT and mutant BMMs were plated in 24-well plates ([…]) the evening prior to use. For infections, 2×10^6 bacteria from 30° C. overnight cultures were washed with PBS and added to each well containing 500 μL of BMM media. For c-di-AMP treatment, synthetic standard was dissolved in digitonin solution to a final concentration of 3 μM. Media was aspirated from cells and replaced with 200 μL of c-di-AMP/digitonin mix. From this point on infections and c-di-AMP samples were treated the same. At 30 minutes wells were aspirated and replaced with fresh BMM media. At 1 hour post infection gentamycin (50 μg/mL) was added. For LPS treatment, 100 ng of sonicated LPS stock solution (50 μg/mL) was added to appropriate wells containing 500 μL of BMM media. Supernatants from all wells were collected and analyzed by ISRE L929 bioassay for IFN-β activity at 6 hours. • 10. Supporting References • S1. D. A. Portnoy, P. S. Jacks, D. J. Hinrichs, Role of hemolysin for the intracellular growth of Listeria monocytogenes. J. Exp. Med. 167, 1459 (1988). • S2. L. Phan-Thanh, T. Gormon, A chemically defined minimal medium for the optimal culture of Listeria. Int. J. Food Microbiol. 35, 91 (1997). • S3. […]

host IFN pathway = conditions: delivered to the host cytosol; reference 29; cited from earlier work

Row | SMILES | IFN-β induction in macrophages ([1]; commercially available c-di-AMP delivered to the cytosol of murine BMMs) | IFN-β inducing activity after treatment with snake venom phosphodiesterase (SVPD) ([1]; sample treated with SVPD) | host signaling pathway required for detection (type-I IFN) (WT and mutant BMMs) | cell permeability (cells) | induction of inflammation (cells; added to the outside of cells) | activation of host IFN pathway (host IFN pathway)
1 | Nc1ncnc2c1ncn2[C@@H]1O[C@@H]2COP(=O)(O)O[C@H]3[C@@H](O)[C@H](n4cnc5c(N)ncnc54)O[C@@H]3COP(=O)(O)O[C@H]2[C@H]1O [c-di-AMP, cyclic di-adenosine monophosphate] | dose-dependent response | abolished the activity | requires a parallel host-signaling pathway | not cell permeable | does not induce inflammation | –
2 | Nc1nc2c(ncn2[C@@H]2O[C@@H]3COP(=O)(O)O[C@H]4[C@@H](O)[C@H](n5cnc6c(=O)[nH]c(N)nc65)O[C@@H]4COP(=O)(O)O[C@H]3[C@H]2O)c(=O)[nH]1 [c-di-GMP] | – | – | – | – | – | specifically activates the host IFN pathway
